Mass density data for 2 molecules are collected here from the NIST ThermoML archive (doi:10.1021/je801009z).

As usually defined, the mass density is mass per unit of volume.

Where “and” joins values, the source holds several entries; their conditions need not be identical. Equal entries are not always repeated. ± gives the expanded uncertainty stated by the source.

The conditions of this data set: Vibrating tube method.

With `FCC(F)(F)F` [1,1,1,2-tetrafluoroethane], the mass density was 1290 ± 120 kg/m3 (288 K, 19600 kPa, Liquid); 1270 ± 60 kg/m3 (298 K, 19600 kPa, Liquid); 1150 ± 100 kg/m3 (308 K, 5000 kPa, Liquid); 1180 ± 60 kg/m3 (308 K, 10100 kPa, Liquid); 1210 ± 10 kg/m3 (308 K, 15400 kPa, Liquid); 1240 ± 10 kg/m3 and 1240 ± 60 kg/m3 (308 K, 19600 kPa, Liquid). Moreover, the mass density is, setting by setting: (308 K, 23700 kPa, Liquid) 1260 ± 100 kg/m3; (318 K, 19600 kPa, Liquid) 1210 ± 60 kg/m3; (328 K, 19600 kPa, Liquid) 1180 ± 120 kg/m3.
For `O=C=O` [carbon dioxide], the mass density by setting is: (308 K, 20000 kPa, Fluid (supercritical or subcritical phases)) 870 ± 120 kg/m3; (313 K, 10000 kPa, Fluid (supercritical or subcritical phases)) 570 kg/m3; (313 K, 15000 kPa, Fluid (supercritical or subcritical phases)) 780 ± 20 kg/m3; (313 K, 20000 kPa, Fluid (supercritical or subcritical phases)) 850 ± 80 kg/m3 and 830 ± 60 kg/m3; (313 K, 25000 kPa, Fluid (supercritical or subcritical phases)) 890 ± 180 kg/m3; (313 K, 36000 kPa, Fluid (supercritical or subcritical phases)) 900 ± 200 kg/m3. Further, the mass density is given as 820 ± 20 kg/m3 (318 K, 20000 kPa, Fluid (supercritical or subcritical phases)); 790 ± 20 kg/m3 (323 K, 20000 kPa, Fluid (supercritical or subcritical phases)); 760 ± 80 kg/m3 (328 K, 20000 kPa, Fluid (supercritical or subcritical phases)); 730 ± 140 kg/m3 (333 K, 20000 kPa, Fluid (supercritical or subcritical phases)).
